Test results published in paper PMC8945721, “Sulphoraphane Affinity-Based Chromatography for the Purification of Myrosinase from Lepidium sativum Seeds” (Biomolecules, 2022).

system: T1, myrosinase from Lepidium sativum seeds; test: glucose release, glucose oxidase-peroxidase coupled assay, Michaelis-Menten fit; format: biochemical; details: pH 6.0, 37 °C, 100 μM L-ascorbic acid; read-out: KM (×10^-3 mol/L)
T1 construct: gene beta-thioglucoside glucohydrolase
From the text: glucose release, glucose oxidase-peroxidase coupled assay, Michaelis-Menten fit on myrosinase from Lepidium sativum seeds

SMILES	Km
C=CC/C(=N/OS(=O)(=O)O)S[C@@H]1O[C@H](CO)[C@@H](O)[C@H](O)[C@H]1O [Sinigrin]	574 ± 237 µM
C[S+]([O-])CCCC/C(=N/OS(=O)(=O)O)S[C@@H]1O[C@H](CO)[C@@H](O)[C@H](O)[C@H]1O (stereo partly drawn) [Glucoraphanin]	1130 ± 256 µM
O=S(=O)(O)O/N=C(/Cc1ccc(O)cc1)S[C@@H]1O[C@H](CO)[C@@H](O)[C@H](O)[C@H]1O [Sinalbin]	632 ± 235 µM
